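The compound was tested at five concentrations on cells cultured in 96-well plates, with a 48-hour exposure period. Here, GI50 denotes the concentration required for 50% inhibition of growth.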 Calls of active or inactive are those of the source. No stated cut-off is given here; in the data, active = GI50 up to about 1.1 µM and inactive = higher.
Experiments:
Test in all cases: NCI anticancer screen, dose series, 48 h
NCI/ADR-RES = system: NCI/ADR-RES
U-251 = system: U-251
SK-MEL-5 = system: SK-MEL-5
TK-10 = system: TK-10
COLO 205 = system: COLO 205
SNB-19 = system: SNB-19
OVCAR-3 = system: OVCAR-3
T47D = system: T47D
MDA-N = system: MDA-N
MOLT-4 = system: MOLT-4
SNB-75 = system: SNB-75
HCT-116 = system: HCT-116
MCF7 = system: MCF7
EKVX = system: EKVX
CCRF-CEM = system: CCRF-CEM
KM12 = system: KM12
M14 = system: M14
OVCAR-4 = system: OVCAR-4
Malme-3M = system: Malme-3M
OVCAR-8 = system: OVCAR-8
MDA-MB-435 = system: MDA-MB-435
LOX IMVI = system: LOX IMVI
786-0 = system: 786-0
HCT-15 = system: HCT-15
NCI-H23 = system: NCI-H23
RXF 393 = system: RXF 393
SK-MEL-28 = system: SK-MEL-28
NCI-H522 = system: NCI-H522
OVCAR-5 = system: OVCAR-5
SN12C = system: SN12C
HCC 2998 = system: HCC 2998
UACC-257 = system: UACC-257
SK-OV-3 = system: SK-OV-3
A498 = system: A498
HT-29 = system: HT-29
NCI-H460 = system: NCI-H460
HOP-62 = system: HOP-62
SF-295 = system: SF-295
SK-MEL-2 = system: SK-MEL-2
A549 = system: A549
ACHN = system: ACHN
SW-620 = system: SW-620
K562 = system: K562
SR = system: SR
IGROV-1 = system: IGROV-1
HOP-92 = system: HOP-92
Hs-578T = system: Hs-578T
MDA-MB-231 = system: MDA-MB-231
SF-539 = system: SF-539
CAKI-1 = system: CAKI-1
UO-31 = system: UO-31
PC-3 = system: PC-3
SF-268 = system: SF-268
DU-145 = system: DU-145
RPMI-8226 = system: RPMI-8226
HL-60 = system: HL-60

## O=C1c2cc3c(cc2CC12Cc1cc4c(cc1C2)CCC4)CCC3
NCI/ADR-RES
  GI50: > 100 µM (inactive)
U-251
  GI50: > 100 µM (inactive)
SK-MEL-5
  GI50: > 100 µM (inactive)
TK-10
  GI50: > 100 µM (inactive)
COLO 205
  GI50: > 100 µM (inactive)
SNB-19
  GI50: > 100 µM (inactive)
OVCAR-3
  GI50: > 100 µM (inactive)
T47D
  GI50: > 100 µM (inactive)
MDA-N
  GI50: > 100 µM (inactive)
MOLT-4
  GI50: 49 µM (inactive)
SNB-75
  GI50: > 100 µM (inactive)
HCT-116
  GI50: > 100 µM (inactive)
MCF7
  GI50: > 100 µM (inactive)
EKVX
  GI50: > 100 µM (inactive)
CCRF-CEM
  GI50: > 100 µM (inactive)
KM12
  GI50: > 100 µM (inactive)
M14
  GI50: > 100 µM (inactive)
OVCAR-4
  GI50: > 100 µM (inactive)
Malme-3M
  GI50: > 100 µM (inactive)
OVCAR-8
  GI50: > 100 µM (inactive)
MDA-MB-435
  GI50: > 100 µM (inactive)
LOX IMVI
  GI50: > 100 µM (inactive)
786-0
  GI50: > 100 µM (inactive)
HCT-15
  GI50: > 100 µM
NCI-H23
  GI50: > 100 µM (inactive)
RXF 393
  GI50: > 100 µM (inactive)
SK-MEL-28
  GI50: > 100 µM (inactive)
NCI-H522
  GI50: > 100 µM (inactive)
OVCAR-5
  GI50: > 100 µM (inactive)
SN12C
  GI50: > 100 µM (inactive)
HCC 2998
  GI50: > 100 µM (inactive)
UACC-257
  GI50: > 100 µM (inactive)
SK-OV-3
  GI50: > 100 µM (inactive)
A498
  GI50: > 100 µM (inactive)
HT-29
  GI50: 93.8 µM (inactive)
NCI-H460
  GI50: > 100 µM (inactive)
HOP-62
  GI50: > 100 µM (inactive)
SF-295
  GI50: > 100 µM (inactive)
SK-MEL-2
  GI50: > 100 µM (inactive)
A549
  GI50: > 100 µM (inactive)
ACHN
  GI50: > 100 µM (inactive)
SW-620
  GI50: > 100 µM (inactive)
K562
  GI50: 27 µM (inactive)
SR
  GI50: > 100 µM (inactive)
IGROV-1
  GI50: > 100 µM (inactive)
HOP-92
  GI50: > 100 µM (inactive)
Hs-578T
  GI50: > 100 µM (inactive)
MDA-MB-231
  GI50: > 100 µM (inactive)
SF-539
  GI50: > 100 µM (inactive)
CAKI-1
  GI50: > 100 µM (inactive)
UO-31
  GI50: > 100 µM (inactive)
PC-3
  GI50: > 100 µM (inactive)
SF-268
  GI50: > 100 µM (inactive)
DU-145
  GI50: > 100 µM (inactive)
RPMI-8226
  GI50: > 100 µM (inactive)
HL-60
  GI50: 59.6 µM (inactive)
